Experimental findings from PubChem BioAssay AID330 (DTP/NCI, 2004) are described below.

Each structure is given as a SMILES string. “And” between values parts separate entries of the source, which are not always exact repeats. Equal values may be shown once. Inconclusive results and toxic doses are left out.

This test deals with P388 leukemia ip, CD2F1 mice, survival T/C. Nature of the test: NCI In Vivo Anticancer Drug Screen. Data for tumor model P388 Leukemia (intraperitoneal) in CD2F1 (CDF1) mice. Conditions: endpoint: median survival time, higher = longer survival. The method in brief: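 Mice carrying the transplanted tumor received test compound or vehicle. Survival was recorded in each group, and the value is the treated-group measurement divided by that of the vehicle-treated control group.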

Where [1] appears, read: dose: 12.5 mg/kg/injection, schedule: Q01DX009 (ip), vehicle: Klucel (hydroxypropylcellulose) (HPC).
Where [2] appears, read: dose: 50.0 mg/kg/injection, schedule: Q01DX009 (ip), vehicle: saline with Tween-80.
Setting [3] is: dose: 100.0 mg/kg/injection, schedule: Q01DX009 (ip), vehicle: saline with Tween-80.
[4] abbreviates: dose: 50.0 mg/kg/injection, schedule: Q01DX005 (ip), vehicle: saline with Tween-80.
[5] abbreviates: dose: 50.0 mg/kg/injection, schedule: Q01DX009 (ip), vehicle: Klucel (hydroxypropylcellulose) (HPC).
Setting [6] is: dose: 60.0 mg/kg/injection, schedule: Q01DX005 (ip), vehicle: Klucel (hydroxypropylcellulose) (HPC).
Setting [7] is: dose: 240.0 mg/kg/injection, schedule: Q01DX005 (ip), vehicle: Klucel (hydroxypropylcellulose) (HPC).
Where [8] appears, read: dose: 50.0 mg/kg/injection, schedule: Q01DX005 (ip), vehicle: Klucel (hydroxypropylcellulose) (HPC).
The mark [9] stands for this setting: dose: 100.0 mg/kg/injection, schedule: Q01DX005 (ip), vehicle: Klucel (hydroxypropylcellulose) (HPC).
[10] abbreviates: dose: 100.0 mg/kg/injection, schedule: Q01DX005 (ip), vehicle: saline with Tween-80.
The mark [11] stands for this setting: dose: 60.0 mg/kg/injection, schedule: Q01DX005 (ip), vehicle: saline with Tween-80.
Where [12] appears, read: dose: 120.0 mg/kg/injection, schedule: Q01DX005 (ip), vehicle: saline with Tween-80.
[13] abbreviates: dose: 240.0 mg/kg/injection, schedule: Q01DX005 (ip), vehicle: saline with Tween-80.

Turning to `Cc1nnc(NS(=O)(=O)c2ccc(N=Nc3cc(N=Nc4ccc(S(=O)(=O)Nc5nnc(C)s5)cc4)c4c(NC(=O)C(Cl)Cl)cccc4c3OC(=O)C(Cl)Cl)cc2)s1` (tested in a mixture with another compound), the T/C is, setting by setting: (dose: 3.12 mg/kg/injection, schedule: Q01DX009 (ip), vehicle: Klucel (hydroxypropylcellulose) (HPC)) 111 % of control; (dose: 6.25 mg/kg/injection, schedule: Q01DX009 (ip), vehicle: Klucel (hydroxypropylcellulose) (HPC)) 116 % of control; (dose: 6.25 mg/kg/injection, schedule: Q01DX009 (ip), vehicle: saline with Tween-80) 109 % of control; under setting [1], 120 % of control; under setting [2], 99 % of control and 97 % of control; under setting [3], 100 % of control. Further, the T/C (dose: 200.0 mg/kg/injection, schedule: Q01DX009 (ip), vehicle: saline with Tween-80) is 98 % of control.

As to `CC1CN(Cc2cc(C(C)(C)c3cc(Cl)c(O)c(CN4CC(C)OC(C)C4)c3)cc(Cl)c2O)CC(C)O1` (stereo unspecified), the T/C was 101 % of control (dose: 12.5 mg/kg/injection, schedule: Q01DX005 (ip), vehicle: saline with Tween-80); 101 % of control (dose: 25.0 mg/kg/injection, schedule: Q01DX005 (ip), vehicle: saline with Tween-80); 87 % of control and 91 % of control under setting [4].

As to `Clc1cc[c]([Sb]2([c]3ccc(Cl)cc3)([c]3ccc(Cl)cc3)[O]C(C(Cl)(Cl)Cl)[O]2)cc1` (stereo unspecified), the T/C under setting [1] was 99 % of control; the T/C (dose: 25.0 mg/kg/injection, schedule: Q01DX009 (ip), vehicle: Klucel (hydroxypropylcellulose) (HPC)) is 104 % of control; the T/C under setting [5] was 100 % of control and 95 % of control.

`CCOC1N(c2ccc(Cl)cc2)CN(C)CC1(C)C` (stereo unspecified): the T/C reads like this: under setting [2], 117 % of control; under setting [3], 120 % of control.

For the molecule `CCc1nc2nc(C)cc(C)n2n1`, the T/C is 100 % of control (dose: 25.0 mg/kg/injection, schedule: Q01DX009 (ip), vehicle: saline with Tween-80); 97 % of control under setting [2]; 103 % of control under setting [3].

`COc1nc(N(C)C)c2cnn(C3CCCCO3)c2n1` (stereo unspecified): the T/C is, setting by setting: (dose: 12.5 mg/kg/injection, schedule: Q04DX002 (ip), vehicle: saline with Tween-80) 102 % of control; (dose: 25.0 mg/kg/injection, schedule: Q04DX002 (ip), vehicle: saline with Tween-80) 97 % of control.

With `CCOC(=O)C1OC(C2(C)OC3(OC4(C=CC3O)OC(C(C)C(=O)C(C)C(O)C(C)CC(C)c3c(Cl)cc(C)c(O)c3C(=O)O)C(C)CC4C)C(C)C2OC)CC1O` (stereo unspecified), the T/C (dose: 1.25 mg/kg/injection, schedule: Q01DX005 (ip), vehicle: Klucel (hydroxypropylcellulose) (HPC)) was 107 % of control and the T/C (dose: 2.5 mg/kg/injection, schedule: Q01DX005 (ip), vehicle: Klucel (hydroxypropylcellulose) (HPC)) is 100 % of control.

With `CCCNCC(=O)Nc1ccccc1NC(=O)CNCCC`, the T/C reads like this: (dose: 50.0 mg/kg/injection, schedule: Q01DX005 (ip), vehicle: saline) 100 % of control; (dose: 100.0 mg/kg/injection, schedule: Q01DX005 (ip), vehicle: saline) 102 % of control; (dose: 200.0 mg/kg/injection, schedule: Q01DX005 (ip), vehicle: saline) 100 % of control.

For `O=C(NC(=O)c1ccc(F)c(Cl)c1)NC1CC1`, the T/C under setting [6] was 100 % of control; the T/C (dose: 120.0 mg/kg/injection, schedule: Q01DX005 (ip), vehicle: Klucel (hydroxypropylcellulose) (HPC)) is 102 % of control; the T/C under setting [7] is 93 % of control.

Consider `CC[n+]1c(/C=C/c2ccc(N(CCC(=O)O)CCC(=O)O)cc2C)sc2ccccc21`, for which the T/C runs as follows: (dose: 12.5 mg/kg/injection, schedule: Q04DX003 (ip), vehicle: saline with Tween-80) 99 % of control; (dose: 25.0 mg/kg/injection, schedule: Q04DX003 (ip), vehicle: saline with Tween-80) 95 % of control; (dose: 50.0 mg/kg/injection, schedule: Q04DX003 (ip), vehicle: saline with Tween-80) 100 % of control.

`N#[N+]c1c([O-])ccc2ccccc12`: the T/C (dose: 25.0 mg/kg/injection, schedule: Q04DX002 (ip), vehicle: Klucel (hydroxypropylcellulose) (HPC)) is 92 % of control; the T/C (dose: 50.0 mg/kg/injection, schedule: Q04DX002 (ip), vehicle: Klucel (hydroxypropylcellulose) (HPC)) is 104 % of control; the T/C (dose: 100.0 mg/kg/injection, schedule: Q04DX002 (ip), vehicle: Klucel (hydroxypropylcellulose) (HPC)) was 90 % of control.

Regarding `Nc1ncc2c(n1)Oc1cc3nc4c(=O)nc(N)nc-4oc3cc1N2`, the T/C was 91 % of control under setting [8] and 93 % of control under setting [9].

Consider `NC(=O)c1nc2c(Nc3ccccc3Br)nc(N)nc2nc1N`, for which the T/C is 104 % of control (dose: 100.0 mg/kg/injection, schedule: Q01DX001 (ip), vehicle: saline); 101 % of control (dose: 200.0 mg/kg/injection, schedule: Q01DX001 (ip), vehicle: saline); 97 % of control (dose: 400.0 mg/kg/injection, schedule: Q01DX001 (ip), vehicle: saline).

In the case of `O=C(O)c1cc(-c2ccc(O)c(O)c2)nc2cc3ccccc3cc12`, the T/C under setting [5] was 97 % of control; the T/C (dose: 100.0 mg/kg/injection, schedule: Q01DX009 (ip), vehicle: Klucel (hydroxypropylcellulose) (HPC)) was 108 % of control; the T/C (dose: 200.0 mg/kg/injection, schedule: Q01DX009 (ip), vehicle: Klucel (hydroxypropylcellulose) (HPC)) was 92 % of control.

`Cn1c(=O)[nH]n(C2Cn3c(=O)n(C)c(=O)n3-c3ccccc32)c1=O` (stereo unspecified): the T/C runs as follows: under setting [8], 115 % of control; under setting [9], 99 % of control; (dose: 200.0 mg/kg/injection, schedule: Q01DX005 (ip), vehicle: Klucel (hydroxypropylcellulose) (HPC)) 96 % of control.

Consider `CN(C)C1C2(C)CCC(C2)C1(C)C` (stereo unspecified), for which the T/C under setting [4] is 103 % of control and the T/C under setting [10] is 102 % of control.

`CCc1cn[nH]c(=O)c1`: the T/C (dose: 50.0 mg/kg/injection, schedule: Q01DX009 (ip), vehicle: saline) is 110 % of control; the T/C (dose: 100.0 mg/kg/injection, schedule: Q01DX009 (ip), vehicle: saline) was 96 % of control; the T/C (dose: 200.0 mg/kg/injection, schedule: Q01DX009 (ip), vehicle: saline) is 104 % of control.

For `O=C1CCNC(=O)N1OS(=O)(=O)c1ccccc1`, the T/C under setting [5] was 86 % of control.

Regarding `CC(=O)OCC(COC(C)=O)(CN1C(=O)c2ccccc2C1=O)CN1C(=O)c2ccccc2C1=O`, the T/C under setting [11] is 100 % of control, the T/C under setting [12] is 102 % of control and the T/C under setting [13] is 102 % of control.

Turning to `O=[N+]([O-])c1ccc2c(NCCCCCCNc3c4ccccc4nc4cc([N+](=O)[O-])ccc34)c3ccccc3nc2c1`, the T/C (dose: 0.63 mg/kg/injection, schedule: Q01DX009 (ip), vehicle: other) was 121 % of control.

With `Cc1cc(=O)c2ccc(N(C)C)cc2[nH]1`, the T/C is 95 % of control under setting [4]; 96 % of control under setting [10]; 101 % of control (dose: 200.0 mg/kg/injection, schedule: Q01DX005 (ip), vehicle: saline with Tween-80).

For the molecule `O=C(Nc1ccc(C(=O)c2ccccc2)cc1)Nc1ccc(Cl)c(Cl)c1`, the T/C was 93 % of control (dose: 15.0 mg/kg/injection, schedule: Q01DX005 (ip), vehicle: Klucel (hydroxypropylcellulose) (HPC)); 96 % of control (dose: 30.0 mg/kg/injection, schedule: Q01DX005 (ip), vehicle: Klucel (hydroxypropylcellulose) (HPC)); 89 % of control under setting [6]; 86 % of control under setting [7].

Take `Cc1nc2ccccc2nc1N1C(=O)c2ccccc2C1=O`: the T/C by setting is: under setting [11], 97 % of control; under setting [12], 99 % of control; under setting [13], 95 % of control.

With `CCOC(=O)c1cn2ccccc2c(C(C)=O)c1=N`, the T/C was 100 % of control (dose: 100.0 mg/kg/injection, schedule: Q04DX003 (ip), vehicle: saline); 100 % of control (dose: 200.0 mg/kg/injection, schedule: Q04DX003 (ip), vehicle: saline); 94 % of control (dose: 400.0 mg/kg/injection, schedule: Q04DX003 (ip), vehicle: saline).

Regarding `C=C(CN1CCN(C)CC1)C(=O)c1ccccc1`, the T/C is, setting by setting: (dose: 1.89 mg/kg/injection, schedule: Q01DX005 (ip), vehicle: saline) 113 % of control; (dose: 3.75 mg/kg/injection, schedule: Q01DX005 (ip), vehicle: saline) 116 % of control; (dose: 7.5 mg/kg/injection, schedule: Q01DX005 (ip), vehicle: saline) 105 % of control and 112 % of control.
